Test results as given in patent US6875743B1, “Cell adhesion inhibitors” (Biogen, Inc., priority 1996, dated 2005).
Where two headings read alike, the source gives them in different places. Numbered stars: 1 amine (or outer) side, 2 acyl side, 3 side chain; on linkers, the order of the positions; unused ones are H or OH. Square brackets hold non-standard residues; d marks the D form. Peptide text beside a SMILES is read from it. * marks the point of attachment. Fmoc = O=C(OCC1c2ccccc2-c2ccccc21)*; X5 = COc1cc(CC(=O)[*:2])ccc1N[*:1]; X1 = O=C(Cc1ccc(N[*:1])cc1)[*:2]; NH(2-Me-phenyl) = Cc1ccccc1N*; PhAc = O=C(Cc1ccccc1)*; CO = O=C([*:1])[*:2]; NHPh = c1ccc(N*)cc1

Target: T1, VLA4 (Homo sapiens, UniProt P05556+P13612)
T1 construct: endogenous in cells; host or cells: Ramos cells
Test: Inhibition of VLA4-dependent adhesion to BSA-CS1
Format: cell-based

[1] = binding of BCECF-labelled Ramos cells to BSA-CS1 coated wells, 2 mM MnCl2, read-out: IC50

T1 sequence (P13612 34-1032): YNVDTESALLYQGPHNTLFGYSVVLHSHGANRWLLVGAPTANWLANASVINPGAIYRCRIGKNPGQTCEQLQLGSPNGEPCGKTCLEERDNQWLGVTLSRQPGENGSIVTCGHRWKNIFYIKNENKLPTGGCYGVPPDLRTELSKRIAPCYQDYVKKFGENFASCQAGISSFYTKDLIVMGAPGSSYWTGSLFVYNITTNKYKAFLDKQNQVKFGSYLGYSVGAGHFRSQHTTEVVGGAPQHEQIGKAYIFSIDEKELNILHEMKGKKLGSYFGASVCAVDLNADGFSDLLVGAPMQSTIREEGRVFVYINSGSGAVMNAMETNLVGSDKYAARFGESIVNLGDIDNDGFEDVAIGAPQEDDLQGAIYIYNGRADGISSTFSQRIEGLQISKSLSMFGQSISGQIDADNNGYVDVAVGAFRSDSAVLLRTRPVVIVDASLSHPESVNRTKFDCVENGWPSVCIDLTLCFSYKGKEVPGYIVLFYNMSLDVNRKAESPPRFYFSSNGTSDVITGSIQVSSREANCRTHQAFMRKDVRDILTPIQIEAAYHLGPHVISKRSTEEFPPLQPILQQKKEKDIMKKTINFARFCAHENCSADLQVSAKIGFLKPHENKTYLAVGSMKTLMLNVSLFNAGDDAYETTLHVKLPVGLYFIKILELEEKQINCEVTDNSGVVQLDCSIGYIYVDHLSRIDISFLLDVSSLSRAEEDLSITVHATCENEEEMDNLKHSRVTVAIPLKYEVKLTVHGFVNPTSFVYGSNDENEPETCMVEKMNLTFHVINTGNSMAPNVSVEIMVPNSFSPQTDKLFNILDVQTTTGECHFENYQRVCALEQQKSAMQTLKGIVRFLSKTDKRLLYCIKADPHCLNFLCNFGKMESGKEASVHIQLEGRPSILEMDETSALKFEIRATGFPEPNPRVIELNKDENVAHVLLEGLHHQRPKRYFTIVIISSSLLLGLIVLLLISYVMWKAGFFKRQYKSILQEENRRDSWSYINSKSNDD
T1 sequence (P05556 21-798): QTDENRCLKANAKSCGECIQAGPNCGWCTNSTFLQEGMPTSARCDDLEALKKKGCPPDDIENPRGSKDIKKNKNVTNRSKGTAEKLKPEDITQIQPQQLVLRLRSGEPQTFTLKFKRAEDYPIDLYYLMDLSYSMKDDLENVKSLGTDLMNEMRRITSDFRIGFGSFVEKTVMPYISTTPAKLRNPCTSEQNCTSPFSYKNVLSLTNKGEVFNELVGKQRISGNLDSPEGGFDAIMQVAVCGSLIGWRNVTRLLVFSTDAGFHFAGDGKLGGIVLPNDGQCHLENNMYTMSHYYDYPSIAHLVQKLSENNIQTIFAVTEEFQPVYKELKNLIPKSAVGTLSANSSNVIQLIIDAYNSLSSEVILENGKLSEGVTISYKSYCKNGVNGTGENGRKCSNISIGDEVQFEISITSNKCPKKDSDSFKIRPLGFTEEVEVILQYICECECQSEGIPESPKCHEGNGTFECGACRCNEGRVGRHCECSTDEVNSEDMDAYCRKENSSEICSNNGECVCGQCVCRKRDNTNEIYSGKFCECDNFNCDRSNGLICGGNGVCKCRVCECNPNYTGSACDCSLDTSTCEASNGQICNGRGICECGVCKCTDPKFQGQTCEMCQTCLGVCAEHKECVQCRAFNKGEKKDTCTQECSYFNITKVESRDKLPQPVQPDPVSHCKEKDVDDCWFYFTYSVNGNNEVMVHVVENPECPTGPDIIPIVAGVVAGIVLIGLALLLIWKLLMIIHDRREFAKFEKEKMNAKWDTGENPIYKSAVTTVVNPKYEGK

IC50 [1] [nM] | Structure (SMILES) | IC50 [nM]
> 10000 | CC(C)C[C@H](NC(=O)OCC1c2ccccc2-c2ccccc21)C(=O)N[C@@H](CC(=O)O)C(=O)N[C@H](C(=O)O)C(C)C [Compound 366] (Fmoc-Leu-Asp-Val-OH) | –
> 10000 | CC(C)C[C@H](NC(=O)c1ccc2ccccc2n1)C(=O)N[C@@H](CC(=O)O)C(=O)N[C@H](C(N)=O)C(C)C [Compound 178] | –
> 10000 | CC(C)C[C@H](NC(=O)CC1CC2CCC1C2)C(=O)N[C@@H](CC(=O)O)C(=O)N[C@H](C(=O)O)C(C)C (some centres unmarked) [Compound 390] | –
< 50 | Cc1ccccc1NC(=O)Nc1ccc(CC(=O)N2CCC[C@H]2C(=O)N[C@@H](CC(=O)O)C(=O)N[C@@H](CC(C)C)C(N)=O)cc1 [Compound 242] | –
< 50 | Cc1ccccc1NC(=O)Nc1ccc(CC(=O)N[C@@H](CC(C)C)C(=O)N[C@@H](CC(=O)O)C(=O)N[C@H](C(=O)N2CCC[C@H]2C(=O)N[C@@H](CO)C(=O)O)C(C)C)cc1 [Compound 337] ({NH(2-Me-phenyl)-CO}-[X1]LDVPS-OH) | –
– | Cc1ccccc1NC(=O)Nc1ccc(CC(=O)N[C@@H](CC(C)C)C(=O)N[C@@H](CC(=O)O)C(=O)N[C@H](C(=O)N2CCC[C@H]2C(=O)N[C@@H](CO)C(=O)N[C@H](C(=O)O)[C@@H](C)O)C(C)C)cc1 [Compound 338] ({NH(2-Me-phenyl)-CO}-[X1]LDVPST-OH) | < 50
< 50 | CSCC[C@H](NC(=O)[C@H](CC(=O)O)NC(=O)[C@H](CC(C)C)NC(=O)Cc1ccc(NC(=O)Nc2ccccc2C)cc1)C(N)=O [Compound 236] | –
> 10000 | COC(=O)[C@@H](NC(=O)[C@H](CC(=O)O)N1CCC(NC(=O)CCc2ccc(O)cc2)C1=O)C(C)C (some centres unmarked) [Compound 335] | –
> 10000 | COC(=O)C1CCCN1C(=O)C(NC(=O)C(CC(=O)O)NC(=O)C(CC(C)C)NC(=O)CCc1ccc(O)cc1)C(C)C (centres unmarked) [Compound 39] | –
< 50 | Cc1ccccc1NC(=O)Nc1ccc(CC(=O)N[C@@H](CS)C(=O)N[C@@H](CC(=O)O)C(=O)N[C@H](C(N)=O)C(C)C)cc1 [Compound 274] | –
> 10000 | CCCCCCNC(=O)C(NC(=O)C(CC(=O)O)NC(=O)C(CC(C)C)NC(=O)CCc1ccc(O)cc1)C(C)C (centres unmarked) [Compound 119] | –
< 50 | Cc1ccccc1NC(=O)Nc1ccc(CC(=O)N[C@H](CC(C)C)C(=O)N[C@@H](CC(=O)O)C(=O)N[C@@H](CC(C)C)C(N)=O)cc1 [Compound 287] | –
< 50 | Cc1ccccc1NC(=O)Nc1ccc(CC(=O)N2CCC[C@H]2C(=O)N[C@@H](CC(=O)O)C(=O)N[C@H](CC(N)=O)C(N)=O)cc1 [Compound 248] | –
> 10000 | CC(C)C[C@H](NC(=O)COc1ccc2ccccc2c1)C(=O)N[C@@H](CC(=O)O)C(=O)N[C@H](C(=O)O)C(C)C [Compound 395] | –
< 50 | Cc1ccccc1NC(=O)Nc1ccc(CC(=O)N[C@@H](CO)C(=O)N[C@@H](CC(=O)O)C(=O)N[C@@H](CCC(=O)O)C(N)=O)cc1 [Compound 279] | –
> 10000 | CC(C)C[C@H](NC(=O)c1ccc2c(c1)OCO2)C(=O)N[C@@H](CC(=O)O)C(=O)N[C@H](C(=O)O)C(C)C [Compound 406] | –
< 50 | Cc1ccccc1NC(=O)Nc1ccc(CC(=O)N[C@@H](CCC(N)=O)C(=O)N[C@@H](CC(=O)O)C(=O)N[C@@H](Cc2c[nH]c3ccccc23)C(N)=O)cc1 [Compound 306] | –
< 50 | CSCC[C@H](NC(=O)Cc1ccc(NC(=O)Nc2ccccc2C)cc1)C(=O)N[C@@H](CC(=O)O)C(=O)N[C@@H](Cc1c[nH]c2ccccc12)C(N)=O [Compound 228] | –
< 50 | Cc1ccccc1NC(=O)Nc1ccc(CC(=O)N[C@@H](CCC(N)=O)C(=O)N[C@@H](CC(=O)O)C(=O)N[C@@H](CC(C)C)C(N)=O)cc1 [Compound 298] | –
< 50 | Cc1ccccc1NC(=O)Nc1ccc(CC(=O)N[C@@H](CO)C(=O)N[C@@H](CC(=O)O)C(=O)N[C@@H](CC(=O)O)C(N)=O)cc1 [Compound 275] | –
> 10000 | CC(C)C[C@H](NC(=O)c1csc(-c2ccncc2)n1)C(=O)N[C@@H](CC(=O)O)C(=O)N[C@H](C(=O)O)C(C)C [Compound 376] | –
< 50 | Cc1ccccc1NC(=O)Nc1ccc(CC(=O)N[C@H](C(=O)N[C@@H](CC(=O)O)C(=O)N[C@H](C(N)=O)C(C)C)[C@@H](C)O)cc1 [Compound 254] | –
< 50 | Cc1ccccc1NC(=O)Nc1ccc(CC(=O)N[C@H](C(=O)N[C@@H](CC(=O)O)C(=O)N[C@H](CCC(=O)O)C(N)=O)[C@@H](C)O)cc1 [Compound 260] | –
< 50 | COc1cc(CC(=O)NC(CCSC)C(=O)NC(CC(=O)O)C(=O)NC(C(=O)N2CCCC2C(=O)O)C(C)C)ccc1NC(=O)Nc1ccccc1 (centres unmarked) [Compound 2] ({NHPh-CO}-[X5]MDVP-OH; configuration not given here) | –
< 50 | Cc1ccccc1NC(=O)Nc1ccc(CC(=O)N[C@H](C(=O)N[C@@H](CC(=O)O)C(=O)N[C@@H](CC(=O)O)C(N)=O)[C@@H](C)O)cc1 [Compound 252] | –
> 10000 | CNC(=O)C(NC(=O)C(CC(=O)O)NC(=O)C(Cc1ccc(O)cc1)NC(=O)Cc1ccccc1)C(C)C (stereo not drawn) [Compound 129] (PhAc-Tyr-Asp-Val-NHMe; configuration not given here) | –
< 50 | CSCC[C@H](NC(=O)Cc1ccc(NC(=O)Nc2ccccc2C)cc1)C(=O)N[C@@H](CCC(=O)O)C(=O)N[C@H](C(N)=O)C(C)C [Compound 309] | –

IC50 [1] [nM] | Structure (SMILES) | IC50 [nM]
< 50 | Cc1ccccc1NC(=O)Nc1ccc(CC(=O)N[C@@H](CCC(=O)O)C(=O)N[C@@H](CC(=O)O)C(=O)N[C@H](CC(N)=O)C(N)=O)cc1 [Compound 270] | –
< 50 | Cc1ccccc1NC(=O)Nc1ccc(CC(=O)N[C@H](C(=O)N[C@@H](CC(=O)O)C(=O)N[C@H](CO)C(N)=O)[C@@H](C)O)cc1 [Compound 262] | –
> 10000 | CCC(C)C(NC(=O)C(CC(=O)O)NC(=O)C(CC(C)C)NC(=O)Cc1ccccc1)C(=O)OC (stereo not drawn) [Compound 54] (PhAc-Leu-Asp-Ile-OMe; configuration not given here) | –
> 10000 | CC(C)C[C@H](NC(=O)c1cc2ccccc2cn1)C(=O)NC(CC(=O)NO)C(=O)N[C@H](C(=O)O)C(C)C (some centres unmarked) [Compound 6] | –
< 50 | Cc1ccccc1NC(=O)Nc1ccc(CC(=O)N[C@@H](CC(C)C)C(=O)N[C@@H](CC(=O)O)C(=O)N[C@@H](Cc2c[nH]c3ccccc23)C(N)=O)cc1 [Compound 239] | –
< 50 | Cc1ccccc1NC(=O)Nc1ccc(CC(=O)N[C@H](CC(C)C)C(=O)N[C@@H](CC(=O)O)C(=O)N[C@H](C(N)=O)[C@@H](C)O)cc1 [Compound 291] | –
< 50 | Cc1ccccc1NC(=O)Nc1ccc(CC(=O)N[C@@H](CC(C)C)C(=O)N[C@@H](CCC(=O)O)C(=O)N[C@H](C(N)=O)C(C)C)cc1 [Compound 311] | –
50 to 10000 | CC(C)C[C@@H](NC(=O)Cc1ccc(NC(=O)Nc2ccccc2)cc1)C(=O)N[C@H](CC(=O)O)C(=O)N[C@@H](C(=O)N1CCC[C@@H]1C(N)=O)C(C)C [Compound 212] ({NHPh-CO}-[X1][dL][dD][dV][dP]-NH2) | –
> 10000 | CC[C@H](C)[C@H](NC(=O)[C@@H](CC(=O)O)NC(=O)[C@H](N)C(C)C)C(=O)NCc1ccc(NC(=O)Nc2ccccc2C)cc1 [Compound 344] | –
50 to 10000 | CNC(=O)[C@@H](CC(C)C)NC(=O)[C@H](CCC(=O)O)NC(=O)[C@@H]1CCCN1C(=O)Cc1ccc(NC(=O)Nc2ccccc2C)cc1 [Compound 414] | –
50 to 10000 | CC(C)CNC(=O)[C@@H](NC(=O)[C@H](CC(=O)O)NC(=O)[C@H](CC(C)C)NC(=O)Cc1ccc(NC(=O)Nc2ccccc2)cc1)C(C)C [Compound 205] | –
< 50 | Cc1ccccc1NC(=O)Nc1ccc(CC(=O)N2CCC[C@H]2C(=O)N[C@@H](CCC(=O)O)C(=O)N[C@H](C(N)=O)C(C)C)cc1 [Compound 313] | –
< 50 | Cc1ccccc1NC(=O)Nc1ccc(CC(=O)N[C@@H](CCC(=O)O)C(=O)N[C@@H](CC(=O)O)C(=O)N[C@@H](CC(C)C)C(N)=O)cc1 [Compound 264] | –
50 to 10000 | Cc1ccccc1NC(=O)Nc1ccc(CC(=O)N2CCC[C@H]2C(=O)N[C@@H](CCC(=O)O)C(=O)N[C@H](CC(C)C)C(=O)O)cc1 [Compound 415] | –
< 50 | CSCC[C@H](NC(=O)[C@H](CC(=O)O)NC(=O)[C@H](CCC(=O)O)NC(=O)Cc1ccc(NC(=O)Nc2ccccc2C)cc1)C(N)=O [Compound 269] | –
< 50 | CSCC[C@H](NC(=O)Cc1ccc(NC(=O)Nc2ccccc2C)cc1)C(=O)N[C@@H](CC(=O)O)C(=O)N[C@@H](CCC(=O)O)C(N)=O [Compound 223] | –
< 50 | CSCC[C@H](NC(=O)[C@H](CC(=O)O)NC(=O)[C@H](CO)NC(=O)Cc1ccc(NC(=O)Nc2ccccc2C)cc1)C(N)=O [Compound 281] | –
> 10000 | CC(C)[C@H](NC(=O)[C@H](CC(=O)O)NC(=O)C(C)(C)NC(=O)c1cc2ccccc2cn1)C(=O)O [Compound 82] | –
< 50 | Cc1ccccc1NC(=O)Nc1ccc(CC(=O)NC(CC(C)C)C(=O)NC(CC(=O)O)C(=O)NC(C(=O)N2CCOCC2)C(C)C)cc1 (centres unmarked) [Compound 329] | –
< 50 | Cc1ccccc1NC(=O)Nc1ccc(CC(=O)N[C@@H](CO)C(=O)N[C@@H](CC(=O)O)C(=O)N[C@H](CC(C)C)C(N)=O)cc1 [Compound 278] | –
< 50 | Cc1ccccc1NC(=O)Nc1ccc(CC(=O)N[C@@H](CO)C(=O)N[C@@H](CC(=O)O)C(=O)N[C@H](CO)C(N)=O)cc1 [Compound 285] | –
< 50 | Cc1ccccc1NC(=O)Nc1ccc(CC(=O)N[C@@H](CC(C)C)C(=O)N[C@@H](CC(=O)O)C(=O)N[C@@H](CCC(=O)O)C(N)=O)cc1 [Compound 234] | –
< 50 | Cc1ccccc1NC(=O)Nc1ccc(CC(=O)N[C@@H](CCC(N)=O)C(=O)N[C@@H](CC(=O)O)C(=O)N[C@H](CC(C)C)C(N)=O)cc1 [Compound 300] | –
> 10000 | CC(C)C[C@H](NC(=O)c1cncc(C#Cc2ccccc2)c1)C(=O)N[C@@H](CC(=O)O)C(=O)N[C@H](C(=O)O)C(C)C [Compound 372] | –
> 10000 | CC(C)C[C@H](NC(=O)CCCCc1ccccc1)C(=O)N[C@@H](CC(=O)O)C(=O)N[C@H](C(=O)O)C(C)C [Compound 98] | –
> 10000 | CC[C@H](C)[C@H](NC(=O)CCc1ccc(O)cc1)C(=O)N[C@H](CC(=O)O)C(=O)NCC(C)C [Compound 16] | –
